Consider 7 compounds from patent US12378189B2, “Multi-aziridine compound” (priority 2020, dated 2025).

Data set [1] relates to Bscl2-GFP and Rtkn-GFP reporters in mouse embryonic stem (mES) cells. The data set can be described thus: ToxTracker genotoxicity assay, overall conclusion from Bscl2-GFP and Rtkn-GFP. As to conditions: positive: >= 2-fold induction at one of 10, 25, 50% cytotoxicity, with or without S9; not genotoxic: <= […] at all. As for the experimental part:
This methodology uses a two step-approach.
Metabolic was evaluated by addition of S9 liver extract. […] Only GFP expression in intact single cells is determined.

Data set [2] has as its system Rtkn-GFP reporter in mouse embryonic stem (mES) cells. Kind of data set: ToxTracker genotoxicity assay, Rtkn-GFP reporter induction.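 Further: GFP reporter signal quantified solely in intact single cells.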
Method: (§1) The genotoxicity can be measured by the ToxTracker® assay (Toxys, Leiden, the Netherlands) as further described herein.
(§2) Genotoxicity of examples and comparatives was evaluated by the ToxTracker® assay (Toxys, Leiden, the Netherlands). The ToxTracker assay is a panel of several validated Green Fluorescent Protein (GFP)-based mouse embryonic stem (mES) reporter cell lines that can be used to identify the biological reactivity and potential carcinogenic properties of newly developed compounds in a single test. This methodology uses a two step-approach.
(§3) In the first step a dose range finding was performed using wild-type mES cells (strain B4418). 20 different concentrations for each compound was tested, starting at 10 mM in DMSO as highest concentration and nineteen consecutive 2-fold dilutions.
(§4) Genotoxicity was evaluated at 10, 25 and 50% cytotoxicity in absence and presence of rat S9 liver extract-based metabolizing systems (aroclor1254-induced rats, Moltox, Boone, NC, USA). The independent cell lines were seeded in 96-well cell culture plates, 24 h after seeding the cells in the 96-well plates, fresh ES cell medium containing the diluted test substance was added to the cells. For each tested compound, five concentrations are tested in 2-fold dilutions. The highest sample concentration will induce significant cytotoxicity (50-70%). In case of no or low cytotoxicity, 10 mM or the maximum soluble mixture concentration is used as maximum test concentration. Cytotoxicity is determined by cell count after 24 h exposure using a Guava easyCyte 10HT flow cytometer (Millipore).
(§5) GFP reporter induction is always compared to a vehicle control treatment.
(§6) All compounds were tested in at least three completely independent repeat experiments. Positive reference treatment with cisplatin (DNA damage) were included in all experiments. Metabolic was evaluated by addition of S9 liver extract. Cells are exposed to five concentrations of the test compound in the presence of S9 and required co-factors (RegenSysA+B, Moltox, Boone, NC, USA) for 3 h. After washing, cells are incubated for 24 h in fresh ES cell medium. Induction of the GFP reporters is determined after 24 h exposure using a Guava easyCyte 10HT flow cytometer (Millipore). Only GFP expression in intact single cells is determined. Mean GFP fluorescence and cell concentrations in each well is measured, which is used for cytotoxicity assessment. Data was analyzed using ToxPlot software (Toxys, Leiden, the Netherlands). The induction levels reported are at compound concentrations that induce 10%, 25% and 50% cytotoxicity after 3 h exposure in the presence of S9 rat liver extract and 24 h recovery or alternatively after 24 h exposure when not in the presence of S9 rat liver extract.
Data set [3] concerns Bscl2-GFP reporter in mouse embryonic stem (mES) cells. The data set can be described thus: ToxTracker genotoxicity assay, Bscl2-GFP reporter induction.
Method: as §1, §2, §3, §4, §5, §6
Setting [4] is: with S9 rat liver extract, concentration inducing 10% cytotoxicity, 3 h exposure, 24 h recovery.
The mark [5] stands for this setting: with S9 rat liver extract, concentration inducing 25% cytotoxicity, 3 h exposure, 24 h recovery.
[6] abbreviates: with S9 rat liver extract, concentration inducing 50% cytotoxicity, 3 h exposure, 24 h recovery.
Where [7] appears, read: without S9 rat liver extract, concentration inducing 10% cytotoxicity, 24 h exposure.
Where [8] appears, read: without S9 rat liver extract, concentration inducing 25% cytotoxicity, 24 h exposure.
[9] abbreviates: without S9 rat liver extract, concentration inducing 50% cytotoxicity, 24 h exposure.

Molecules are shown by their SMILES.

`O=C(CCN1CC1)OCC(CO)(COC(=O)CCN1CC1)COC(=O)CCN1CC1` [Comp Ex 5, pentaerythritol tris(3-(1-aziridinyl)propionate)]: the “Genotoxicity test result (conclusion)” value in data set [1] is reported as “genotoxic”.
As to `CCCCOCC(CN1CC1)OC(=O)NC1CCC(CC2CCC(NC(=O)OC(COCCCC)CN3CC3)CC2)CC1` (stereo not shown) [Comp. Ex 4], the “Genotoxicity test result (conclusion)” value in data set [1] was “genotoxic”. Further, the Rtkn induction level in data set [2] (setting [4]) was 1.1 fold; in data set [2] (setting [5]), 1.6 fold; in data set [2] (setting [6]), 1.9 fold; in data set [2] (setting [7]), 1.2 fold; in data set [2] (setting [8]), 1.5 fold; in data set [2] (setting [9]), 2.1 fold.
For the compound `O=C(NCCCCCCn1c(=O)n(CCCCCCNC(=O)OCCN2CC2)c(=O)n(CCCCCCNC(=O)OCCN2CC2)c1=O)OCCN1CC1` [Comp. Ex. 2], the “Genotoxicity test result (conclusion)” value in data set [1] is listed as “genotoxic”. For the same compound, the Rtkn induction level in data set [2] (setting [4]) is recorded as 2.0 fold; in data set [2] (setting [5]), 3.4 fold; in data set [2] (setting [6]), 3.0 fold; in data set [2] (setting [7]) it was 1.7 fold; in data set [2] (setting [8]), 2.4 fold; in data set [2] (setting [9]), 2.8 fold.
Consider `CC(CN1CC1)OC(=O)NCCCCCCn1c(=O)n(CCCCCCNC(=O)OC(C)CN2CC2)c(=O)n(CCCCCCNC(=O)OC(C)CN2CC2)c1=O` (stereo not shown) [Comp. Ex. 3], for which the “Genotoxicity test result (conclusion)” value in data set [1] is reported as “genotoxic”. In addition, the Rtkn induction level is on record as 1.3 fold in data set [2] (setting [4]); 2.1 fold in data set [2] (setting [5]); 2.2 fold in data set [2] (setting [6]); 1.3 fold in data set [2] (setting [7]); 1.8 fold in data set [2] (setting [8]); 1.9 fold in data set [2] (setting [9]).
On to `CCCCOCC(CN1CC1)OC(=O)NCCCCCCn1c(=O)n(CCCCCCNC(=O)OC(COCCCC)CN2CC2)c(=O)n(CCCCCCNC(=O)OC(COCCCC)CN2CC2)c1=O` (stereo not shown) [Ex. 1], for which, in data set [1], the “Genotoxicity test result (conclusion)” value is “non-genotoxic”. The Rtkn induction level stood at 1.0 fold in data set [2] (setting [4]); 1.1 fold in data set [2] (setting [5]); 1.1 fold in data set [2] (setting [6]); 1.0 fold in data set [2] (setting [7]); 1.0 fold in data set [2] (setting [8]); 0.9 fold in data set [2] (setting [9]).
In the case of `CCCCCCCCCC(=O)OCC(CN1CC1)OC(=O)NCCCCCCn1c(=O)n(CCCCCCNC(=O)OC(COC(=O)CCCCCCCCC)CN2CC2)c(=O)n(CCCCCCNC(=O)OC(COC(=O)CCCCCCCCC)CN2CC2)c1=O` (stereo not shown) [Ex. 3], in data set [1], the “Genotoxicity test result (conclusion)” value is on record as “non-genotoxic”. Moreover, the Rtkn induction level is recorded as 1.3 fold in data set [2] (setting [4]); 1.5 fold in data set [2] (setting [5]); 1.5 fold in data set [2] (setting [6]); 1.3 fold in data set [2] (setting [7]); 1.5 fold in data set [2] (setting [8]); 1.5 fold in data set [2] (setting [9]). The “Bscl 2 induction level” value in data set [3] (setting [4]) came to 1.1 fold; in data set [3] (setting [5]), 1.2 fold; in data set [3] (setting [6]), 1.2 fold; in data set [3] (setting [7]) it was 1.1 fold; in data set [3] (setting [8]) it was 1.2 fold; in data set [3] (setting [9]), 1.4 fold.
As to `CCCCOCC(CN1CC1)OC(=O)NCCCCCC/N=c1\oc(=O)n(CCCCCCNC(=O)OC(COCCCC)CN2CC2)c(=O)n1CCCCCCNC(=O)OC(COCCCC)CN1CC1` (stereo not shown) [Ex. 5], in data set [1], the “Genotoxicity test result (conclusion)” value was “non-genotoxic”. The Rtkn induction level in data set [2] (setting [4]) is 1.0 fold; in data set [2] (setting [5]) it was 0.9 fold; in data set [2] (setting [6]) it was 1.0 fold; in data set [2] (setting [7]), 1.0 fold; in data set [2] (setting [8]) it was 1.1 fold; in data set [2] (setting [9]), 1.0 fold.
